In patent US9580433B2 (Janssen Pharmaceutica NV, priority 2013, dated 2017):

How the values were obtained:
[1] = tested on: brain levels of soluble Aβ42, Aβ40; experiment: In vivo Aβ lowering, brain levels of soluble Aβ by MSD electrochemiluminescence; parameters: species or system mouse; conditions: 4 h after administration, untreated control set at 100
Excerpt: To determine whether acute administration of an Aβ lowering agent would reduce Aβ levels in vivo, non-transgenic rodents, e.g. mice or rats were used. Animals treated with the Aβ lowering agent were examined and compared to those untreated or treated with vehicle and brain levels of soluble Aβ42, Aβ40, Aβ38, and Aβ37 were quantitated by Meso Scale Discovery's (MSD) electrochemiluminescence detection technology. Treatment periods varied from hours (h) to days and were adjusted based on the results of the Aβ lowering once a time course of onset of effect could be established.
A typical protocol for measuring Aβ lowering in vivo is shown but it is only one of many variations that could be used to optimize the levels of detectable Aβ. For example, Aβ lowering compounds were formulated in 20% of Captisol® (a sulfo-butyl ether of β-cyclodextrin) in water or 20% hydroxypropyl 3 cyclodextrin. The Aβ lowering agents were administered as a single oral dose or by any acceptable route of administration to overnight fasted animals. After 4 h, the animals were sacrificed and Aβ levels were analysed.
Blood was collected by decapitation and exsanguinations in EDTA-treated collection tubes. Blood was centrifuged at 1900 g for 10 minutes (min) at 4° C. and the plasma recovered and flash frozen for later analysis. The brain was removed from the cranium and hindbrain. The cerebellum was removed and the left and right hemisphere were separated. The left hemisphere was stored at −18° C. for quantitative analysis of test compound levels. The right hemisphere was rinsed with phosphate-buffered saline (PBS) buffer and immediately frozen on dry ice and stored at −80° C. until homogenization for biochemical assays.
Mouse brains from non-transgenic animals were resuspended in 8 volumes of 0.4% DEA (diethylamine)/50 mM NaCl containing protease inhibitors (Roche-11873580001 or 04693159001) per gram of tissue, e.g. for 0.158 g brain, add 1.264 ml of 0.4% DEA. All samples were homogenized in the FastPrep-24 system (MP Biomedicals) using lysing matrix D (MPBio #6913-100) at 6 m/s for 20 seconds. […] Nine parts of supernatant were neutralized with 1 part 0.5 M Tris-HCl pH 6.8 and used to quantify Aβ.
To quantify the amount of Aβ42, Aβ40, Aβ38, and Aβ37 in the soluble fraction of the brain homogenates, simultaneous specific detection of Aβ42, Aβ40, Aβ38, and Aβ37 was performed using MSD's electro-chemiluminescence multiplex detection technology. […] Following this incubation and subsequent wash steps the assay was finished by adding read buffer according to the manufacturer's instructions (Meso Scale Discovery, Gaithersburg, Md.).
The SULFO-TAG emits light upon electrochemical stimulation initiated at the electrode. MSD Sector instrument SI6000 was used for signal read-out. […]

BACE1 = target: T1, BACE1 (Homo sapiens, UniProt P56817); experiment: BACE1 biochemical FRET based assay; conditions: recombinant BACE1, 450 min, pH 5.0; read-out: BACE1 Biochemical FRET based assay pIC50 (converted)
T1 construct: recombinant BACE1 protein in a final concentration of 0.04 g/ml
T1 sequence (P56817 46-501): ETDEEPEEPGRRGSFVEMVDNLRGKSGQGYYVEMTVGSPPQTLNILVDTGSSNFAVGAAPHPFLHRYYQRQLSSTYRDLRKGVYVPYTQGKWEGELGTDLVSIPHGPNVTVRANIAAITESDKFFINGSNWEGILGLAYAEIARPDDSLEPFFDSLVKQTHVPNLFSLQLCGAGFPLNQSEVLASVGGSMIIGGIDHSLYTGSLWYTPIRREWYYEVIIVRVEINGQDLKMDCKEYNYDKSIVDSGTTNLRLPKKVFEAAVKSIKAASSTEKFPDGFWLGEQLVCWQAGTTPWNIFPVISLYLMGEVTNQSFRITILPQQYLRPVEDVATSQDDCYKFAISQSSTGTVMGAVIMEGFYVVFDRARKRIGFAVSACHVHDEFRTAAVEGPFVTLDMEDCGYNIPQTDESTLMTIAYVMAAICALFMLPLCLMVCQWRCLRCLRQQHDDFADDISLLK

[2] = tested on: Abeta total produced and secreted by SKNBE2 cells (BACE1); experiment: BACE1 cellular αLisa assay in SKNBE2 cells, Abeta total; type: cell-based, human; conditions: Homo sapiens, SKNBE2, 18 h, SKNBE2 cells expressing hAPP695, 18 hours incubation; read-out: Cellular αLisa assay in SKNBE2 cells Abetatotal pIC50 (converted)
Method: (§1) BACE1 Cellular αLisa Assay in SKNBE2 Cells
(§2) In two αLisa assays the levels of Abeta total and Abeta 1-42 produced and secreted into the medium of human neuroblastoma SKNBE2 cells are quantified. The assay is based on the human neuroblastoma SKNBE2 expressing the wild type Amyloid Precursor Protein (hAPP695). The compounds are diluted and added to these cells, incubated for 18 hours and then measurements of Abeta 1-42 and Abeta total are taken. Abeta total and Abeta 1-42 are measured by sandwich αLisa. αLisa is a sandwich assay using biotinylated antibody AbN/25 attached to streptavidin coated beads and antibody Ab4G8 or cAb42/26 conjugated acceptor beads for the detection of Abeta total and Abeta 1-42 respectively. In the presence of Abeta total or Abeta 1-42, the beads come into close proximity. The excitation of the donor beads provokes the release of singlet oxygen molecules that trigger a cascade of energy transfer in the acceptor beads, resulting in light emission. Light emission is measured after 1 hour incubation (excitation at […] and emission at 615 nm).
(§3) A best-fit curve is fitted by a minimum sum of squares method to the plot of % Controlmin versus compound concentration.

BACE2 = target: T2, BACE2 (Homo sapiens, UniProt Q9Y5Z0); experiment: BACE2 biochemical FRET based assay; conditions: recombinant BACE2, 450 min, pH 5.0; read-out: BACE2 Biochemical FRET based assay pIC50 (converted)
T2 construct: recombinant BACE2 protein in a final concentration of 0.4 μg/ml
T2 sequence (Q9Y5Z0 63-518): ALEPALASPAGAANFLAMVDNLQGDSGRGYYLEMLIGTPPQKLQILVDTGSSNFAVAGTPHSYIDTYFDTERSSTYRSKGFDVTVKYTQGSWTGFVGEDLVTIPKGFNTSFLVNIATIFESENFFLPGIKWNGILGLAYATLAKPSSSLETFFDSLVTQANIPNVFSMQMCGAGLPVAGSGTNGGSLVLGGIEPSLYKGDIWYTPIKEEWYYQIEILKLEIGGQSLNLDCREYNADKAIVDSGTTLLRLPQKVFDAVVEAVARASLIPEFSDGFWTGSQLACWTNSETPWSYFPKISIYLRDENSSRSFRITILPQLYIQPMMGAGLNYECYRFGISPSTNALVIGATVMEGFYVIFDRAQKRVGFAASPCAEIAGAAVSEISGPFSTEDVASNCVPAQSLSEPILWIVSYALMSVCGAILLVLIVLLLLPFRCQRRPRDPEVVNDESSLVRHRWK

[3] = tested on: Abeta 1-42 produced and secreted by SKNBE2 cells (BACE1); experiment: BACE1 cellular αLisa assay in SKNBE2 cells, Abeta 1-42; type: cell-based, human; conditions: Homo sapiens, SKNBE2, 18 h, SKNBE2 cells expressing hAPP695, 18 hours incubation; read-out: Cellular αLisa assay in SKNBE2 cells Abeta 42 pIC50 (converted)
Method: as §1, §2, §3

SMILES | Aβ40 (% vs Ctrl)_Mean ([1]; dose 10, p.o.) | Aβ42 (% vs Ctrl)_Mean ([1]; dose 10, p.o.) | IC50 (BACE1) | IC50 [2] | IC50 (BACE2) | IC50 [3] | Aβ40 (% vs Ctrl)_Mean ([1]; dose 10, s.c.) | Aβ42 (% vs Ctrl)_Mean ([1]; dose 10, s.c.)
Cc1nc(C(=O)Nc2ccc(F)c([C@]3(C)Cn4cncc4C(N)=N3)c2)co1 [Compound 4, N-{3-[(6R)-8-Amino-6-methyl-5,6-dihydroimidazo[1,5-a]pyrazin-6-yl]-4-fluorophenyl}-2-methyl-1,3-oxazole-4-carboxamide] | 111 % vs Ctrl | 108 % vs Ctrl | 11.7 nM | 24 nM | 6.46 nM | 26.3 nM |  | 
C[C@@]1(c2cc(NC(=O)c3ccc(C#N)cn3)ccc2F)Cn2cncc2C(N)=N1 [Compound 5, N-{3-[(6R)-8-Amino-6-methyl-5,6-dihydroimidazo[1,5-a]pyrazin-6-yl]-4-fluorophenyl}-5-cyanopyridine-2-carboxamide] |  |  |  | 4.79 nM |  | 5.25 nM | 108 % vs Ctrl | 100 % vs Ctrl
